{"source": "paper PMC12429696", "about": "“The Neurotropic Activity of Novel Dermorphin Analogs Active in Systemic and Noninvasive Administration” (International Journal of Molecular Sciences, 2025)", "key": {"mice [1]": {"system": "mice", "experiment": "Hot plate test in mice", "format": "in vivo", "conditions": "50 mg/kg, 30 and 60 min after administration", "description": "(§1) Two tests, “tail-flick” and “hot plate,” were used to evaluate the analgesic action of peptides administered intraperitoneally and intra-gastrically.\n(§2) The control groups consisted of mice injected with solvent. The tested substances were administered to the animals intraperitoneally and intragastrically in a volume of 0.1 mL of saline per 10 g of body weight. The pain response threshold was measured before and 30 and 60 min after administration.\nThe “hot plate” test evaluates the pain reaction to thermal irritation of the mouse paw. The Hot Plate Model 7280 (Ugo Basile S.R.L., Gemonio, Italy) analgesimeter was used for this test. The maximal duration of the pain stimulus (thermal irritation) was set at 60 s.\n(§3) In both tests, the final indicator of analgesic action was defined as a 50% or more significant effect on the number of animals in each experimental group, expressed as a percentage of the total number of animals in that group. […]"}, "mice [2]": {"system": "mice", "experiment": "Tail-flick test (radiant heat) in mice", "format": "in vivo", "conditions": "50 mg/kg; for analgesic action in tail-flick test: 30 and 60 min after administration", "source_text": "as §1\nThe pain stimulus was applied locally to the tail as radiant heat using a Tail Flick Analgesia Meter (Hugo Sachs Elektronik, Germany). A tail-flick latent period of 6 s was considered the maximum time for applying the stimulus (Equation (1): tmax—6 s, maximal duration of pain stimulus).\nas §2, §3"}, "[3]": {"system": "isolated preparations of guinea pig ileal smooth muscle", "experiment": "Opioid activity on electrically stimulated isolated guinea pig ileum (GPI)", "format": "cell-based", "conditions": "inhibition of electrically stimulated contractions of GPI segment, Krebs solution 34 °C, 10^−9 to 10^−6 M, tests in duplicate", "source_text": "Dermorphin analogs have been tested using the standard guinea pig ileum (GPI) model, The GPI is rich in µ-opioid receptors. Ten peptides were suppressed via electrical stimulation contractions of segment GPI in the studied concentration range (10^−9 to 10^−6 M) (Table 1).\nThe opioid receptor antagonist naloxone (10^−6 M) prevented or weakened the action of the compounds under investigation, confirming the opioid mechanism of their action. […] Thus, new dermorphin analogs can be agonists of µ-type opioid receptors. However, this needs to be verified using molecular modeling methods in further research. Attila M. et al. (1993) investigated the potential binding of 16 dermorphin analogs to µ and δ opioid receptors in brain cells.\nThe peripheral opioid activity of the peptides was assessed according to known methodology. A segment of guinea pig ileum (approximately 1 cm long) was placed into a 10 mL organ bath containing Krebs solution at 34 °C. Single pulses stimulated the segment of the ileum (1 g) with a duration of 1 ms and a frequency of 0.1 Hz at 80 V. Contractions were recorded in isometric mode using a K30 sensor (Hugo Sachs Elektronic KG, March, Germany).\nAll tests for each molecule were performed in duplicate. Based on the data obtained, dose-effect curves were plotted, and the IC50 index was determined as the concentration of the substance that causes 50% of the maximal inhibitory effect."}, "κ receptors": {"system": "κ receptors", "set-up": "method as in PMID 3033543", "conditions": "rat brain; cited from earlier work"}, "δ-opioid receptors": {"system": "δ-opioid receptors", "set-up": "method as in PMID 3033543", "conditions": "rat brain; cited from earlier work"}, "µ-opioid receptors": {"system": "µ-opioid receptors", "set-up": "method as in PMID 3033543", "conditions": "cited from earlier work"}, "rats [4]": {"system": "rats", "experiment": "Water immersion tail-flick test in rats", "format": "in vivo, Wistar rats", "conditions": "for duration of analgesic effect: intraperitoneal, 5 mg/kg, water tail-flick 56 °C"}, "rats [5]": {"system": "rats", "experiment": "Open field test in rats with intranasal administration", "format": "in vivo, Wistar rats", "conditions": "n = 7, open field 2 min", "description": "The experiments were conducted in an automated “open-field” chamber that registered and processed computer data. They were conducted in two replicates on 64 male Wistar rats weighing 240–260 g. The “open-field” is a round arena with a diameter of 80 cm, lined with three concentric circles and eight diameters. During the experiment, the rat was placed in the center of the arena. Motor activity (measured as the number of segments passed), the number of departures from the arena wall, vertical activity (the number of rises on the hind legs), and the number of touches of the muzzle with the paws (washing) were visually assessed for two minutes. A 500-watt household electric bell and a 15-watt red lamp were placed 80 cm above the arena. The study was conducted in silence and under the light of the red lamp.\nAnimals were divided into groups: untrained intact animals and trained experimental animals. All animals were divided into five groups: • In the intact group, animals without training were injected with 0.05 mL of physiological solution one minute before being placed in the “open field.” (n = 33). • The control group consisted of animals adapted after a 5-day administration of 0.5 mL of saline (n = 10). • Single drug action at a 15 μg/kg dose was administered to adapted animals (n = 7). • Adapted animals (n = 7) received a 50 μg/kg dose of a single drug action. • Single drug action at a 150 μg/kg dose was administered to adapted animals (n = 7)."}, "[6]": {"conditions": "intracerebroventricular, 1.0 μg/kg"}}, "note": "“Also recorded” adds a separate entry of the source. Square brackets hold non-standard residues; d marks the D form. Ends that are not written are not given here."}
{"molecule": "COc1cccc(C2(O)CCCCC2CN(C)C)c1", "note": "(stereo not shown) [tramadol, reference compound]", "values": [{"measurement": "analgesic action in hot plate test", "setting": "mice [1]; intragastric", "result": "no significant analgesic effect"}, {"measurement": "analgesic action in tail-flick test", "setting": "mice [2]; intragastric", "result": "active"}]}
{"molecule": "Cyclo-[L-Lys(H-Tyr-D-Ala-Phe-D-Ala)-L-Glu(OH)] (head to tail) [D6]", "values": [{"measurement": "Index IC50", "setting": "[3]", "result": 570, "unit": "nM"}]}
{"molecule": "Cyclo-[L-Lys(H-Tyr-D-Ala-Phe-D-Ala)-L-Glu-(L-TrpOMe)] (head to tail) [D7]", "values": [{"measurement": "Index IC50", "setting": "[3]", "result": 2000, "unit": "nM"}]}
{"molecule": "Cyclo-[L-Lys(H-Tyr-D-Ala-Phe-D-Ala-Tyr-Pro-Ser)-L-Glu(L-Trp-NH2)] (head to tail) [D3]", "values": [{"measurement": "analgesic action in hot plate test", "setting": "mice [1]; intragastric", "result": "no significant analgesic effect"}, {"measurement": "analgesic action in hot plate test", "setting": "mice [1]; intraperitoneal", "result": "highest activity for 60 min; also recorded: active as tramadol"}, {"measurement": "Index IC50", "setting": "[3]", "result": 33, "unit": "nM"}, {"measurement": "analgesic action in tail-flick test", "setting": "mice [2]; intragastric", "result": "active after 30 and 60 min"}, {"measurement": "duration of activity in tail-flick test", "setting": "mice [2]; intraperitoneal", "result": 60, "unit": "min"}, {"measurement": "analgesic action in tail-flick test", "setting": "mice [2]; intraperitoneal", "result": "high analgesic activity"}]}
{"molecule": "Cyclo-[L-Lys(H-Tyr-D-Ala-Phe-D-Ala-Tyr-Pro-Ser)-L-Glu(L-Trp-OH)] (head to tail) [D4]", "values": [{"measurement": "analgesic action in hot plate test", "setting": "mice [1]; intragastric", "result": "no significant analgesic effect"}, {"measurement": "analgesic action in hot plate test", "setting": "mice [1]; intraperitoneal", "result": "moderately active; also recorded: active as tramadol"}, {"measurement": "Index IC50", "setting": "[3]", "result": 11, "unit": "nM"}, {"measurement": "analgesic action in tail-flick test", "setting": "mice [2]; intragastric", "result": "active after 30 and 60 min"}, {"measurement": "analgesic action in tail-flick test", "setting": "mice [2]; intraperitoneal", "result": "high analgesic activity"}]}
{"molecule": "H-RY[dA]F[dA]-OH (SMILES C[C@@H](NC(=O)[C@H](Cc1ccccc1)NC(=O)[C@@H](C)NC(=O)[C@H](Cc1ccc(O)cc1)NC(=O)[C@@H](N)CCCNC(=N)N)C(=O)O) [D9]", "values": [{"measurement": "Index IC50", "setting": "[3]", "result": 1000, "unit": "nM"}]}
{"molecule": "H-Tyr-D-Ala-Phe-Gly-Tyr-Pro-Ser-NH2 [D1, reference compound]", "values": [{"measurement": "analgesic action in hot plate test", "setting": "mice [1]; intragastric", "result": "did not exhibit analgesic action"}, {"measurement": "analgesic action in hot plate test", "setting": "mice [1]; intraperitoneal", "result": "active as tramadol"}, {"measurement": "Index IC50", "setting": "[3]", "result": 2.5, "unit": "nM"}, {"measurement": "affinity for κ receptors", "setting": "κ receptors", "result": "low affinity"}, {"measurement": "affinity for δ-opioid receptors", "setting": "δ-opioid receptors", "result": "low affinity"}, {"measurement": "analgesic action in tail-flick test", "setting": "mice [2]; intragastric", "result": "did not exhibit analgesic action"}, {"measurement": "duration of activity in tail-flick test", "setting": "mice [2]; intraperitoneal", "result": 60, "unit": "min"}, {"measurement": "affinity for µ-opioid receptors", "setting": "µ-opioid receptors", "result": "very high affinity"}, {"measurement": "duration of analgesic effect", "setting": "rats [4]", "result": "approximately 1 h"}]}
{"molecule": "H-Y[dA]F[dA]-OH (SMILES C[C@@H](NC(=O)[C@H](Cc1ccccc1)NC(=O)[C@@H](C)NC(=O)[C@@H](N)Cc1ccc(O)cc1)C(=O)O) [D10, reference compound]", "values": [{"measurement": "Index IC50", "setting": "[3]", "result": 1000, "unit": "nM"}]}
{"molecule": "H-Y[dA]F[dA]YPS-NHMe (SMILES CNC(=O)[C@H](CO)NC(=O)[C@@H]1CCCN1C(=O)[C@H](Cc1ccc(O)cc1)NC(=O)[C@@H](C)NC(=O)[C@H](Cc1ccccc1)NC(=O)[C@@H](C)NC(=O)[C@@H](N)Cc1ccc(O)cc1) [D2]", "values": [{"measurement": "analgesic action in hot plate test", "setting": "mice [1]; intragastric", "result": "no significant analgesic effect"}, {"measurement": "analgesic action in hot plate test", "setting": "mice [1]; intraperitoneal", "result": "significant activity only at 30 min; also recorded: active only for 30 min"}, {"measurement": "Index IC50", "setting": "[3]", "result": 9.5, "unit": "nM"}, {"measurement": "analgesic action in tail-flick test", "setting": "mice [2]; intragastric", "result": "active in the “tail-flick” test only 30 min after administration"}, {"measurement": "Defecation", "setting": "rats [5]; 15 µg/kg", "result": "0.92 ± 0.26"}, {"measurement": "Dive", "setting": "rats [5]; 15 µg/kg", "result": "6.17 ± 1.63"}, {"measurement": "Grooming", "setting": "rats [5]; 15 µg/kg", "result": "1.58 ± 0.42"}, {"measurement": "Path", "setting": "rats [5]; 15 µg/kg", "result": "23.83 ± 7.16"}, {"measurement": "Stand", "setting": "rats [5]; 15 µg/kg", "result": "8.83 ± 3.03"}, {"measurement": "Urination", "setting": "rats [5]; 15 µg/kg", "result": "0.25 ± 0.13"}, {"measurement": "Defecation", "setting": "rats [5]; 50 µg/kg", "result": "1.10 ± 0.18"}, {"measurement": "Dive", "setting": "rats [5]; 50 µg/kg", "result": "3.40 ± 0.76"}, {"measurement": "Grooming", "setting": "rats [5]; 50 µg/kg", "result": "0.90 ± 0.46"}, {"measurement": "Path", "setting": "rats [5]; 50 µg/kg", "result": "21.80 ± 6.16"}, {"measurement": "Stand", "setting": "rats [5]; 50 µg/kg", "result": "4.50 ± 1.35"}, {"measurement": "Urination", "setting": "rats [5]; 50 µg/kg", "result": "0.20 ± 0.13"}, {"measurement": "Defecation", "setting": "rats [5]; 150 µg/kg", "result": "0.60 ± 0.22"}, {"measurement": "Dive", "setting": "rats [5]; 150 µg/kg", "result": "2.90 ± 0.99"}, {"measurement": "Grooming", "setting": "rats [5]; 150 µg/kg", "result": "1.00 ± 0.39"}, {"measurement": "Path", "setting": "rats [5]; 150 µg/kg", "result": "14.80 ± 3.80"}, {"measurement": "Stand", "setting": "rats [5]; 150 µg/kg", "result": "4.70 ± 1.45"}, {"measurement": "Urination", "setting": "rats [5]; 150 µg/kg", "result": "0.10 ± 0.10"}, {"measurement": "analgesic effect", "setting": "rats [4]; [6]", "result": "potent analgesia"}, {"measurement": "observed side effects", "setting": "rats [4]; [6]", "result": "severe muscle tension, and numbness"}, {"measurement": "observed side effects", "setting": "rats [4]; intracerebroventricular, 2.5 μg/kg", "result": "complete immobility and catatonic effects"}, {"measurement": "analgesic effect (A)", "setting": "rats [4]; intracerebroventricular, 2.5 μg/kg, n = 7", "result": 100, "unit": "%"}, {"measurement": "observed side effects", "setting": "rats [4]; intranasal, 0.5 µg/kg", "result": "short-term state of stupor"}, {"measurement": "analgesic effect", "setting": "rats [4]; intranasal, 1.0 µg/kg", "result": "maximum long-lasting analgesia"}, {"measurement": "observed side effects", "setting": "rats [4]; intranasal, 1.0 µg/kg", "result": "complete stupor"}, {"measurement": "duration of analgesic effect", "setting": "rats [4]", "result": "up to 5 h"}]}
{"molecule": "H-Y[dA]F[dA]YPS-OH (SMILES C[C@@H](NC(=O)[C@H](Cc1ccccc1)NC(=O)[C@@H](C)NC(=O)[C@@H](N)Cc1ccc(O)cc1)C(=O)N[C@@H](Cc1ccc(O)cc1)C(=O)N1CCC[C@H]1C(=O)N[C@@H](CO)C(=O)O) [D5]", "values": [{"measurement": "Index IC50", "setting": "[3]", "result": 760, "unit": "nM"}]}
{"molecule": "RY[dA]FG-OH (N-terminus assumed; SMILES C[C@@H](NC(=O)[C@H](Cc1ccc(O)cc1)NC(=O)[C@@H](N)CCCNC(=N)N)C(=O)N[C@@H](Cc1ccccc1)C(=O)NCC(=O)O) [D8]", "values": [{"measurement": "Index IC50", "setting": "[3]", "result": 3000, "unit": "nM"}]}
